From patent US20220339187A1, “ANTIMICROBIAL PEPTIDE-SELENIUM NANOPARTICLES” (The University of Melbourne, priority 2019, published 2022)

How the values were obtained:
[1] = system: human dermal fibroblast cells (HDF); experiment: Lactate Dehydrogenase (LDH) release assay; assay type: cell-based; conditions: concentration of up to 50 μg/mL, 6 h
Procedure: LDH is released from cells into the medium when cell lysis occurs. The amount of LDH released to the medium was measured using the Cyto Tox 96® nonradioactive assay (Promega, Madison, Wis., USA) following the manufacturer's instructions. The HDF cells were cultured in a 96-well microplate for 24 h, before the old medium was replaced with DMEM with including either Se NPs, Se NP-ε-PL or pure ε-PL. Pure DMEM was used as negative control. The microplate was put back into the incubator for 6 h. For the maximum LDH release control, HDF cells were lysed using 1× lysis solution for 45 minutes before adding Cyto Tox 96 reagent. Cyto Tox 96 reagent was then added to the wells and the microplate was incubated for a further 30 minutes. The reaction was then stopped by adding stop solution. A microplate reader (M200 PRO, Tecan) was utilized to test absorbance at 490 nm. The cytotoxicity (Y) was calculated using the following formula: […]
OD3 represents the mean absorbance of experimental groups, and OD4 represents the mean absorbance of the maximum LDH release control group. All absorbance values are after subtraction of the culture medium background values.

E. coli ATCC 25922 = experiment: Adenosine triphosphate (ATP) test (BacTiter-Glo); assay type: cell-based, Escherichia coli; conditions: 1 h at 37° C.
Procedure: The bacterial strains methicillin-sensitive S. aureus ATCC 29213, E. faecalis ATCC 29212, E. coli ATCC 25922 and K. pneumoniae ATCC 13883 were cultured in MHB at 37° C. 50 μL of Se NPs, Se NP-ε-PL or pure ε-PL in PBS solution was added into each well of 96-well microplates. 50 μL MHB with 2.5×10^6 cells/mL bacteria was then added into each well. After 1h incubation at 37° C., the 96-well microplates were transferred to room temperature for a further 30 min incubation period. 100 μL of BacTiter-Glo™ reagent (Promega, Australia) was added into each well, then mixed on an orbital shaker and incubated for 5 min. The luminescence was recorded using a microplate reader (PerkinElmer 1420 Multilabel Counter VICTOR3).
A standard curve was generated by adopting the following steps. 10-fold serial dilutions of ATP from 1 μM to 10 pM in 100 μL MHB were prepared. 100 μL of BacTiter-Glo™ reagent was added into each well, then mixed on an orbital shaker and incubated for 1 min. The luminescence was recorded using a microplate reader (PerkinElmer 1420 Multilabel Counter VICTOR3).

[2] = system: methicillin-sensitive S. aureus (MSSA) ATCC 29213; experiment: ROS production test (CellROX Orange, flow cytometry); assay type: cell-based, Staphylococcus aureus; conditions: 6.25 or 12.5 μg/ml
Procedure: The bacterial strains methicillin-sensitive S. aureus (MSSA) ATCC 29213, E. faecalis ATCC 29212, E. coli ATCC 25922 were cultured in MHB at 37° C. 50 μL of different concentration of Se NPs, Se NP-ε-PL or pure ε-PL in PBS solution was added into each well of a 96-well microplate. 50 μL MHB with 2.5×10^6 cells/mL bacteria was then added into each well. After 90 min incubation at 37° C., CellROX® Orange Reagent was added into each well at a final concentration of 750 nM. The cells were incubated for a further 1 h. The fluorescence from the CellROX Orange Reagent was measured on FL-3 (red fluorescence channel) using the Cell Lab Quanta SC MPL flow cytometer (Beckman Coulter). Two independent experiments were done for this test, and two technical replicates were adopted for each independent experiment.

ε-poly-L-lysine [ε-PL]
LDH released from HDF cells compared with untreated control [1]: no significant difference to the untreated control
ATP depletion (E. coli ATCC 25922): higher ATP depletion effect than Se NPs
ROS production (high ROS production cells) [2]: slight promotion of ROS production
